How the values were obtained:
[1] = biological target: T1, oxytocin receptor recombinant protein (Homo sapiens, UniProt P30559); test: Binding of cosmoperine to the oxytocin receptor by surface plasmon resonance; conditions: SPR chip with oxytocin receptor bound to its surface; cosmoperine 0 to 400 μM; reaction for 90 seconds
T1 construct: purchased Mybiosource, MA
T1 sequence (P30559 1-389): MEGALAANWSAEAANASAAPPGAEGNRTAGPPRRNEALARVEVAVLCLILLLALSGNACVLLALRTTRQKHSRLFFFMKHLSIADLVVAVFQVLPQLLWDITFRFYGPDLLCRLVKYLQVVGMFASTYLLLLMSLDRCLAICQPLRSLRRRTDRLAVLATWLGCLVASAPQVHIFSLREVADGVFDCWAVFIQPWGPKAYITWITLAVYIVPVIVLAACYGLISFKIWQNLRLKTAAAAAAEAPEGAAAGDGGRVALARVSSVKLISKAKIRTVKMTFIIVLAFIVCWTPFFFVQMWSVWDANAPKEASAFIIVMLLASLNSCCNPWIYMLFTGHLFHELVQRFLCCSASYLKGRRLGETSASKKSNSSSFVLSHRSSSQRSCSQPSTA
Procedure: In order to confirm the binding of cosmoperine to the oxytocin receptor, cosmoperine (Sabina Corp, NJ) at a concentration of 0 to 400 μM was applied to a SPR chip (Biorad, MA) with the oxytocin receptor (oxytocin receptor recombinant protein, Mybiosource, MA) bound to its surface, followed by reaction for 90 seconds. Then, the binding pattern of cosmoperine to the oxytocin receptor was measured using a surface plasmon resonance device (Surface plasmon resonance; Biorad, MA).

[2] = tested on: PC12 (neurocytoma cell); test: Inhibitory effect on glucocorticoid-induced apoptosis (CCK-8 cell survival); type: cell-based; conditions: PC12 cells, 400 μM corticosterone 24 hours, 50 μM cosmoperine pretreated 2 hours before, relative survival rate
Procedure: In order to confirm the anti-stress effect of cosmoperine, a test was performed for glucocorticoid-induced apoptosis.
PC12 (neurocytoma cell; KCLB21721, Korea Cell Line Bank) was seeded into a 96-well plate at 2×10^4 cells/well and cultured at 5% CO2 and 37° C. The culture medium was RPMI 1640 medium (Gibco BRL, Grand Island, N.Y., USA)) supplemented with 10% serum (heat-inactivated fetal bovine serum (FBS, Gibco)), 100 U/ml of penicillin (Gibco) and 100 μg/ml of streptomycin (Gibco). The cells were treated with 400 μM corticosterone (Sigma, MA), which is a stress hormone, and cultured at 5% CO2 and 37° C. for 24 hours to induce stress. 400 μM corticosterone and 50 μM fluoxetine (fluoxetine hydrochloride, Sigma), which is an antidepressant, were used as the positive control group. For the cosmoperine-treated group, 400 μM corticosterone and 50 μM cosmoperine (Sabina Corp, NJ) were used. Fluoxetine and cosmoperine each were pretreated 2 hours before the application of corticosterone. 10 μl of CCK-8 solution (Dojindo Laboratories) was added to each of the wells, followed by culture for 2 hours. Then, measurements were made at […].

Compound: O=C(CCCCc1ccc2c(c1)OCO2)N1CCCCC1 [cosmoperine, tetrahydropiperine]
- binding to the oxytocin receptor [1]: binds to the oxytocin receptor in a concentration-dependent manner
- inhibiting the apoptosis induced by corticosterone [2]: excellent in inhibiting the apoptosis induced by corticosterone
